Measured values published in ChEMBL document CHEMBL4513161, “CO-ADD screening of MMV (CH) - Pandemic Response Box” (2021).
Values after ≈ are worked out from the molar mass of the structure shown.

Experiments:
Staphylococcus aureus = test: microbe, parasite or virus in culture; details: ATCC 43300, 18 h, ASSAY_TEST Inhibition of Bacterial Growth, detection method Absorption (OD600), MEDIA CAMHB, plate type 384well, NBS, CORNING #3640
Description: Antibacterial activity against Staphylococcus aureus MRSA ATCC 43300 (CO-ADD:GP_020); MIC in CAMBH media, using NBS plates, by OD(600)

Acinetobacter baumannii = test: microbe, parasite or virus in culture; details: ATCC 19606, 18 h, ASSAY_TEST Inhibition of Bacterial Growth, detection method Absorption (OD600), MEDIA CAMHB, plate type 384well, NBS, CORNING #3640
Description: Antibacterial activity against Acinetobacter baumannii ATCC 19606 (CO-ADD:GN_034); MIC in CAMBH media using NBS plates, by OD600

Escherichia coli = test: microbe, parasite or virus in culture; details: ATCC 25922, 18 h, ASSAY_TEST Inhibition of Bacterial Growth, detection method Absorption (OD600), MEDIA CAMHB, plate type 384well, NBS, CORNING #3640
Description: Antibacterial activity against Escherichia coli ATCC 25922 (CO-ADD:GN_001); MIC in CAMBH media using NBS plates, by OD(600)

Klebsiella pneumoniae = test: microbe, parasite or virus in culture; details: ATCC 700603, 18 h, ASSAY_TEST Inhibition of Bacterial Growth, detection method Absorption (OD600), MEDIA CAMHB, plate type 384well, NBS, CORNING #3640
Description: Antibacterial activity against Klebsiella pneumoniae MDR ATCC 70063 (CO-ADD:GN_003); MIC in CAMBH media using NBS plates, by OD(600)

HEK293 = test: cells; type: functional, Homo sapiens, ATCC CRL1573; details: Homo sapiens, ATCC CRL1573, HEK293; ASSAY_TEST Inhibition of Cell Viability; detection method Resazurin; Fluorescence (ex560/em590); MEDIA DMEM with 10% FBS; plate type 384well; TC; CORNING #3712; time 18 hr; read-out: CC50
Candida albicans = test: microbe, parasite or virus in culture; details: ATCC 90028, ASSAY_TEST Inhibition of Fungal Growth, detection method Absorption (OD530), plate type 384well, NBS, CORNING #3640
Description: Antifungal activity against Candida albicans ATCC 90028 (CO-ADD:FG_001); MIC in YNB media using NBS plates, by OD630

Pseudomonas aeruginosa [1] = test: microbe, parasite or virus in culture; details: ATCC 27853, 18 h, ASSAY_TEST Inhibition of Bacterial Growth, detection method Absorption (OD600), MEDIA CAMHB, plate type 384well, NBS, CORNING #3640
Description: Antibacterial activity against Pseudomonas aeruginosa ATCC 27853 (CO-ADD:GN_042); MIC in CAMBH media using NBS plates, by OD(600)

Pseudomonas aeruginosa [2] = test: Antibacterial activity against Pseudomonas aeruginosa PAO397 [PAO1 d(mexAB-oprM) d(mexCD-oprJ) d(mexEF-oprN) d(mexJKL) d(mexXY) d(opmH)] (CO-ADD:GN_211); MIC in CAMBH media using NBS plates, by OD(600); type: functional; details: ASSAY_TEST Inhibition of Bacterial Growth, detection method Absorption (OD600), MEDIA CAMHB, plate type 384well, CORNING #3640, time 18 hr

Description for Cryptococcus neoformans: Antifungal activity against Cryptococcus neoformans H99 ATCC 208821 (CO-ADD:FG_002); MIC in YNB media using NBS plates, by Resazurin OD(600-570)

SMILES | MIC (Staphylococcus aureus) [µM] | MIC (Acinetobacter baumannii) [µM] | MIC (Escherichia coli) [µM] | MIC (Klebsiella pneumoniae) [µM] | MIC (Candida albicans) [µM] | MIC (Cryptococcus neoformans) [µM] | MIC (Pseudomonas aeruginosa [1]) [µM] | MIC (Pseudomonas aeruginosa [2]) [µM] | CC50 (HEK293) [µM]
Nc1nc(O)c2ncn([C@@H]3O[C@H](CO)[C@@H](O)[C@H]3F)c2n1 | > 20 | > 20 | > 20 | > 20 | > 20 | > 20 | > 20 | > 20 | > 20
Nc1nnnn1CCOc1c2[nH]c3ccc(Cl)cc3c2cc2c1[nH]c1ccc(Cl)cc12 | > 20 | > 20 | > 20 | > 20 | > 20 | > 20 | > 20 | > 20 | 19.9
O=C(Nc1ccc(Cl)c(C(F)(F)F)c1)C(CCCl)C(=O)Nc1ccc(Cl)c(C(F)(F)F)c1 | > 20 | > 20 | > 20 | > 20 | > 20 | > 20 | > 20 | > 20 | > 20
NC(=S)N/N=C/c1ncccc1N [TRIAPINE] | > 20 | > 20 | > 20 | > 20 | > 20 | > 20 | > 20 | 20 (≈ 3.91 µg/mL) | 2.83
CCOC(=O)/C=C/[C@H](C[C@@H]1CCNC1=O)NC(=O)[C@H](CC)n1cccc(NC(=O)c2cc(C)on2)c1=O | > 20 | > 20 | > 20 | > 20 | > 20 | > 20 | > 20 | > 20 | > 20
COc1cc(NS(=O)(=O)c2ccc(C)cc2)c2ncccc2c1 | > 20 | > 20 | > 20 | > 20 | > 20 | > 20 | > 20 | > 20 | 5.41
O=C(NC1CCCc2c1[nH]c1ccc(Cl)cc21)c1ccccn1 (stereo unspecified) | > 20 | > 20 | > 20 | > 20 | > 20 | > 20 | > 20 | 20 (≈ 6.52 µg/mL) | > 20
O=[N+]([O-])/C(Br)=C/c1ccc(Br)o1 | > 20 | > 20 | > 20 | > 20 | 20 (≈ 5.94 µg/mL) | 20 (≈ 5.94 µg/mL) | > 20 | > 20 | > 20
CCOC(=O)N[C@@H]1CC[C@@H]2[C@@H](C1)C[C@H]1C(=O)O[C@H](C)[C@H]1[C@H]2/C=C/c1ccc(-c2cccc(F)c2)cn1 [VORAPAXAR] | > 20 | > 20 | > 20 | > 20 | > 20 | > 20 | > 20 | > 20 | > 20

Further lines, with some results ahead:

MIC (Staphylococcus aureus) [µM] | MIC (Acinetobacter baumannii) [µM] | MIC (Escherichia coli) [µM] | MIC (Klebsiella pneumoniae) [µM] | MIC (Candida albicans) [µM] | MIC (Cryptococcus neoformans) [µM] | MIC (Pseudomonas aeruginosa [1]) [µM] | MIC (Pseudomonas aeruginosa [2]) [µM] | SMILES | CC50 (HEK293) [µM]
> 20 | > 20 | > 20 | > 20 | > 20 | > 20 | > 20 | > 20 | Oc1ccc(NCc2ccccc2OCc2ccccc2)cc1 | > 20
> 20 | > 20 | > 20 | > 20 | > 20 | > 20 | > 20 | > 20 | O=C(NCc1ccccc1Cl)c1cnc2ccccc2n1 | > 20
> 20 | > 20 | > 20 | > 20 | > 20 | > 20 | > 20 | > 20 | COc1ccc(NC(=O)c2cc3ccccn3n2)cc1 | > 20
> 20 | > 20 | > 20 | > 20 | > 20 | > 20 | > 20 | > 20 | N=C(N)c1ccc(COc2ccc(Cl)cc2)cc1 | > 20
≤ 0.156 | > 20 | 2.5 (≈ 0.733 µg/mL) | > 20 | > 20 | > 20 | 10 (≈ 2.93 µg/mL) | > 20 | CCc1cc(O)c(Oc2ccc(C(N)=O)cc2F)cc1F | > 20
